{"source": "ChEMBL document CHEMBL4033729", "about": "“Penicillospirone from a marine isolate of Penicillium sp. (SF-5292) with anti-inflammatory activity” (Bioorg Med Chem Lett, 2017)", "key": {"Mus musculus [1]": {"organism": "Mus musculus", "assay": "Inhibition of LPS-stimulated NFkappaB DNA binding activity in mouse RAW264.7 cells assessed pre-incubated for 3 hrs before LPS-stimulation for 60 mins by ELISA", "assay_type": "cell-based"}, "RAW264.7 [2]": {"tested_on": "RAW264.7", "assay": "Anti-inflammatory activity in mouse RAW264.7 cells assessed as reduction in LPS-induced nitric oxide production pre-incubated for 3 hrs before LPS-stimulation for 24 hrs by Griess reagent based ELISA", "assay_type": "functional, cell-based"}, "BV-2 [3]": {"tested_on": "BV-2", "assay": "Anti-inflammatory activity in mouse BV2 cells assessed as reduction in LPS-induced nitric oxide production pre-incubated for 3 hrs before LPS-stimulation for 24 hrs by Griess reagent based ELISA", "assay_type": "functional, cell-based"}, "RAW264.7 [4]": {"tested_on": "RAW264.7", "assay": "Anti-inflammatory activity in mouse RAW264.7 cells assessed as reduction in LPS-induced PGE2 production pre-incubated for 3 hrs before LPS-stimulation for 24 hrs", "assay_type": "functional, cell-based"}, "BV-2 [5]": {"tested_on": "BV-2", "assay": "Anti-inflammatory activity in mouse BV2 cells assessed as reduction in LPS-induced PGE2 production pre-incubated for 3 hrs before LPS-stimulation for 24 hrs", "assay_type": "functional, cell-based"}, "RAW264.7 [6]": {"tested_on": "RAW264.7", "assay": "Cytotoxicity in mouse RAW264.7 cells at 10 to 80 uM by MTT assay", "assay_type": "cell-based", "conditions": "raw264.7, 80 µM"}, "BV-2 [7]": {"tested_on": "BV-2", "assay": "Cytotoxicity in mouse BV2 cells at 10 to 80 uM by MTT assay", "assay_type": "cell-based", "conditions": "bv-2, 80 µM"}, "RAW264.7 [8]": {"tested_on": "RAW264.7", "assay": "Inhibition of LPS-stimulated iNOS protein expression in mouse RAW264.7 cells pre-incubated for 3 hrs before LPS-stimulation for 24 hrs by Western blot method", "assay_type": "functional, cell-based"}, "RAW264.7 [9]": {"tested_on": "RAW264.7", "assay": "Inhibition of LPS-stimulated COX2 protein expression in mouse RAW264.7 cells pre-incubated for 3 hrs before LPS-stimulation for 24 hrs by Western blot method", "assay_type": "functional, cell-based"}, "BV-2 [10]": {"tested_on": "BV-2", "assay": "Inhibition of LPS-stimulated iNOS protein expression in mouse BV2 cells pre-incubated for 3 hrs before LPS-stimulation for 24 hrs by Western blot method", "assay_type": "functional, cell-based"}, "BV-2 [11]": {"tested_on": "BV-2", "assay": "Inhibition of LPS-stimulated COX2 protein expression in mouse BV2 cells pre-incubated for 3 hrs before LPS-stimulation for 24 hrs by Western blot method", "assay_type": "functional, cell-based"}, "Mus musculus [12]": {"organism": "Mus musculus", "assay": "Inhibition of LPS-stimulated NFkappaB signalling activation in mouse RAW264.7 cells assessed as reduction in IkappaB phosphorylation pre-incubated for 3 hrs before LPS-stimulation for 60 mins by Western blot method", "assay_type": "cell-based"}, "Mus musculus [13]": {"organism": "Mus musculus", "assay": "Inhibition of LPS-stimulated NFkappaB signalling activation in mouse BV2 cells assessed as reduction in IkappaB phosphorylation pre-incubated for 3 hrs before LPS-stimulation for 60 mins by Western blot method", "assay_type": "cell-based"}, "Mus musculus [14]": {"organism": "Mus musculus", "assay": "Inhibition of LPS-stimulated NFkappaB p65/p50 nuclear translocation in mouse RAW264.7 cells assessed as increase in cytosolic p65/p50 protein level at 10 to 40 uM pre-incubated for 3 hrs before LPS-stimulation for 60 mins by Western blot method", "assay_type": "cell-based"}, "Mus musculus [15]": {"organism": "Mus musculus", "assay": "Inhibition of LPS-stimulated NFkappaB p65/p50 nuclear translocation in mouse BV2 cells assessed as increase in cytosolic p65/p50 protein level at 10 to 40 uM pre-incubated for 3 hrs before LPS-stimulation for 60 mins by Western blot method", "assay_type": "cell-based"}, "Mus musculus [16]": {"organism": "Mus musculus", "assay": "Inhibition of LPS-stimulated NFkappaB DNA binding activity in mouse BV2 cells assessed pre-incubated for 3 hrs before LPS-stimulation for 60 mins by ELISA", "assay_type": "cell-based"}, "RAW264.7 [17]": {"tested_on": "RAW264.7", "assay": "Anti-inflammatory activity in mouse RAW264.7 cells assessed as reduction in LPS-induced TNFalpha mRNA expression pre-incubated for 3 hrs before LPS-stimulation for 12 hrs by RT-qPCR method", "assay_type": "functional, cell-based"}, "RAW264.7 [18]": {"tested_on": "RAW264.7", "assay": "Anti-inflammatory activity in mouse RAW264.7 cells assessed as reduction in LPS-induced IL-1beta mRNA expression pre-incubated for 3 hrs before LPS-stimulation for 12 hrs by RT-qPCR method", "assay_type": "functional, cell-based"}, "RAW264.7 [19]": {"tested_on": "RAW264.7", "assay": "Anti-inflammatory activity in mouse RAW264.7 cells assessed as reduction in LPS-induced IL6 mRNA expression pre-incubated for 3 hrs before LPS-stimulation for 12 hrs by RT-qPCR method", "assay_type": "functional, cell-based"}, "RAW264.7 [20]": {"tested_on": "RAW264.7", "assay": "Anti-inflammatory activity in mouse RAW264.7 cells assessed as reduction in LPS-induced IL12 mRNA expression pre-incubated for 3 hrs before LPS-stimulation for 12 hrs by RT-qPCR method", "assay_type": "functional, cell-based"}, "BV-2 [21]": {"tested_on": "BV-2", "assay": "Anti-inflammatory activity in mouse BV2 cells assessed as reduction in LPS-induced TNFalpha mRNA expression pre-incubated for 3 hrs before LPS-stimulation for 12 hrs by RT-qPCR method", "assay_type": "functional, cell-based"}, "BV-2 [22]": {"tested_on": "BV-2", "assay": "Anti-inflammatory activity in mouse BV2 cells assessed as reduction in LPS-induced IL-1beta mRNA expression pre-incubated for 3 hrs before LPS-stimulation for 12 hrs by RT-qPCR method", "assay_type": "functional, cell-based"}, "BV-2 [23]": {"tested_on": "BV-2", "assay": "Anti-inflammatory activity in mouse BV2 cells assessed as reduction in LPS-induced IL6 mRNA expression pre-incubated for 3 hrs before LPS-stimulation for 12 hrs by RT-qPCR method", "assay_type": "functional, cell-based"}, "BV-2 [24]": {"tested_on": "BV-2", "assay": "Anti-inflammatory activity in mouse BV2 cells assessed as reduction in LPS-induced IL12 mRNA expression pre-incubated for 3 hrs before LPS-stimulation for 12 hrs by RT-qPCR method", "assay_type": "functional, cell-based"}}, "note": "The source made the active and inactive calls. No cut-off for these calls is given here."}
{"smiles": "C/C=C/[C@@H]1C=CC(=O)[C@H](O)[C@]12C(=O)O[C@H](C)[C@@H]2O", "values": [{"measurement": "inhibition", "setting": "Mus musculus [1]", "value": "Dose-dependent effect"}, {"measurement": "IC50", "setting": "RAW264.7 [2]", "value": 23.5, "unit": "µM"}, {"measurement": "inhibition", "setting": "RAW264.7 [2]", "value": "Dose-dependent effect"}, {"measurement": "IC50", "setting": "BV-2 [3]", "value": 21.9, "unit": "µM"}, {"measurement": "inhibition", "setting": "BV-2 [3]", "value": "Dose-dependent effect"}, {"measurement": "IC50", "setting": "RAW264.7 [4]", "value": 22.8, "unit": "µM"}, {"measurement": "IC50", "setting": "BV-2 [5]", "value": 27.6, "unit": "µM"}, {"measurement": "Activity", "setting": "RAW264.7 [6]", "value": "Non-Toxic"}, {"measurement": "Activity", "setting": "BV-2 [7]", "value": "Non-Toxic"}, {"measurement": "inhibition", "setting": "RAW264.7 [8]", "value": "Dose-dependent effect"}, {"measurement": "inhibition", "setting": "RAW264.7 [9]", "value": "Dose-dependent effect"}, {"measurement": "inhibition", "setting": "BV-2 [10]", "value": "Dose-dependent effect"}, {"measurement": "inhibition", "setting": "BV-2 [11]", "value": "Dose-dependent effect"}, {"measurement": "inhibition", "setting": "Mus musculus [12]", "value": "Dose-dependent effect"}, {"measurement": "inhibition", "setting": "Mus musculus [13]", "value": "Dose-dependent effect"}, {"measurement": "inhibition", "setting": "Mus musculus [14]", "value": "Active"}, {"measurement": "inhibition", "setting": "Mus musculus [15]", "value": "Active"}, {"measurement": "inhibition", "setting": "Mus musculus [16]", "value": "Dose-dependent effect"}, {"measurement": "inhibition", "setting": "RAW264.7 [17]", "value": "Dose-dependent effect"}, {"measurement": "inhibition", "setting": "RAW264.7 [18]", "value": "Dose-dependent effect"}, {"measurement": "inhibition", "setting": "RAW264.7 [19]", "value": "Dose-dependent effect"}, {"measurement": "inhibition", "setting": "RAW264.7 [20]", "value": "Dose-dependent effect"}, {"measurement": "inhibition", "setting": "BV-2 [21]", "value": "Dose-dependent effect"}, {"measurement": "inhibition", "setting": "BV-2 [22]", "value": "Dose-dependent effect"}, {"measurement": "inhibition", "setting": "BV-2 [23]", "value": "Dose-dependent effect"}, {"measurement": "inhibition", "setting": "BV-2 [24]", "value": "Dose-dependent effect"}]}
